In brackets after ≈: the same amount, converted by molar mass.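 Protocol summary: plate cells (96-well), add compound at 5 concentrations, incubate 48 h, interpolate endpoints linearly. Here, GI50 denotes the concentration required for 50% inhibition of growth. TGI is the concentration that stops growth completely.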
How the values were obtained:
Assay in all cases: NCI-60 cell line screen, 48 h
MCF7 breast = tested on: MCF7 breast
OVCAR-3 ovarian = tested on: OVCAR-3 ovarian
CCRF-CEM leukemia = tested on: CCRF-CEM leukemia
MALME-3M melanoma = tested on: MALME-3M melanoma
PC-3 prostate = tested on: PC-3 prostate
U251 CNS = tested on: U251 CNS
LOX IMVI melanoma = tested on: LOX IMVI melanoma
NCI/ADR-RES ovarian = tested on: NCI/ADR-RES ovarian
NCI-H460 lung = tested on: NCI-H460 lung
SW-620 colon = tested on: SW-620 colon
HS 578T breast = tested on: HS 578T breast
SK-MEL-28 melanoma = tested on: SK-MEL-28 melanoma
OVCAR-5 ovarian = tested on: OVCAR-5 ovarian
HT29 colon = tested on: HT29 colon
HCC-2998 colon = tested on: HCC-2998 colon
NCI-H522 lung = tested on: NCI-H522 lung
SR leukemia = tested on: SR leukemia
T-47D breast = tested on: T-47D breast
DU-145 prostate = tested on: DU-145 prostate
RPMI-8226 leukemia = tested on: RPMI-8226 leukemia
MDA-N = tested on: MDA-N
SF-295 CNS = tested on: SF-295 CNS
UACC-62 melanoma = tested on: UACC-62 melanoma
SK-OV-3 ovarian = tested on: SK-OV-3 ovarian
HCT-15 colon = tested on: HCT-15 colon
MDA-MB-231 breast = tested on: MDA-MB-231 breast
OVCAR-4 ovarian = tested on: OVCAR-4 ovarian
HL-60(TB) leukemia = tested on: HL-60(TB) leukemia
UO-31 renal = tested on: UO-31 renal
COLO 205 colon = tested on: COLO 205 colon
SN12C renal = tested on: SN12C renal
SNB-19 CNS = tested on: SNB-19 CNS
NCI-H23 lung = tested on: NCI-H23 lung
HOP-92 NSCLC = tested on: HOP-92 NSCLC
SF-268 CNS = tested on: SF-268 CNS
ACHN renal = tested on: ACHN renal
786-0 renal = tested on: 786-0 renal
CAKI-1 renal = tested on: CAKI-1 renal
SF-539 CNS = tested on: SF-539 CNS
K-562 leukemia = tested on: K-562 leukemia
A498 renal = tested on: A498 renal
BT-549 breast = tested on: BT-549 breast
SK-MEL-5 melanoma = tested on: SK-MEL-5 melanoma
MDA-MB-435 = tested on: MDA-MB-435
SK-MEL-2 melanoma = tested on: SK-MEL-2 melanoma
IGROV1 ovarian = tested on: IGROV1 ovarian
TK-10 renal = tested on: TK-10 renal
HCT-116 colon = tested on: HCT-116 colon
HOP-62 NSCLC = tested on: HOP-62 NSCLC
EKVX NSCLC = tested on: EKVX NSCLC
MOLT-4 leukemia = tested on: MOLT-4 leukemia
UACC-257 melanoma = tested on: UACC-257 melanoma
OVCAR-8 ovarian = tested on: OVCAR-8 ovarian
A549 NSCLC = tested on: A549 NSCLC
KM12 colon = tested on: KM12 colon
SNB-75 CNS = tested on: SNB-75 CNS
M14 melanoma = tested on: M14 melanoma
NCI-H226 lung = tested on: NCI-H226 lung

O=C(CNC(c1ccccc1)(c1ccccc1)c1ccccc1)NC1CCCCC1NC(=O)CNC(c1ccccc1)(c1ccccc1)c1ccccc1 (stereo unspecified)
TGI (MCF7 breast): > 100 µM
TGI (OVCAR-3 ovarian): > 100 µM
TGI (CCRF-CEM leukemia): > 100 µM
TGI (MALME-3M melanoma): > 100 µM
TGI (PC-3 prostate): > 100 µM
TGI (U251 CNS): > 100 µM
TGI (LOX IMVI melanoma): > 100 µM
TGI (NCI/ADR-RES ovarian): > 100 µM
TGI (NCI-H460 lung): > 100 µM
TGI (SW-620 colon): > 100 µM
TGI (HS 578T breast): > 100 µM
TGI (SK-MEL-28 melanoma): > 100 µM
TGI (OVCAR-5 ovarian): > 100 µM
TGI (HT29 colon): > 100 µM
TGI (HCC-2998 colon): > 100 µM
TGI (NCI-H522 lung): > 100 µM
TGI (SR leukemia): > 100 µM
TGI (T-47D breast): > 100 µM
TGI (DU-145 prostate): > 100 µM
TGI (RPMI-8226 leukemia): > 100 µM
TGI (MDA-N): > 100 µM
TGI (SF-295 CNS): > 100 µM
TGI (UACC-62 melanoma): > 100 µM
TGI (SK-OV-3 ovarian): > 100 µM
TGI (HCT-15 colon): > 100 µM
TGI (MDA-MB-231 breast): > 100 µM
TGI (OVCAR-4 ovarian): > 100 µM
TGI (HL-60(TB) leukemia): > 100 µM
TGI (UO-31 renal): > 100 µM
TGI (COLO 205 colon): > 100 µM
TGI (SN12C renal): > 100 µM
TGI (SNB-19 CNS): > 100 µM
TGI (NCI-H23 lung): > 100 µM
TGI (HOP-92 NSCLC): 78.7 µM
TGI (SF-268 CNS): > 100 µM
TGI (ACHN renal): > 100 µM
TGI (786-0 renal): > 100 µM
TGI (CAKI-1 renal): > 100 µM
TGI (SF-539 CNS): > 100 µM
TGI (K-562 leukemia): > 100 µM
TGI (A498 renal): > 100 µM
TGI (BT-549 breast): > 100 µM
TGI (SK-MEL-5 melanoma): > 100 µM
TGI (MDA-MB-435): > 100 µM
TGI (SK-MEL-2 melanoma): > 100 µM
TGI (IGROV1 ovarian): > 100 µM
TGI (TK-10 renal): > 100 µM
TGI (HCT-116 colon): > 100 µM
TGI (HOP-62 NSCLC): 91.6 µM
TGI (EKVX NSCLC): 47.6 µM
TGI (MOLT-4 leukemia): > 100 µM
TGI (UACC-257 melanoma): > 100 µM
TGI (OVCAR-8 ovarian): > 100 µM
TGI (A549 NSCLC): > 100 µM
TGI (KM12 colon): > 100 µM

NCC1OC(OC2C(CO)OC(OC3C(O)C(N)CC(N)C3OC3OC(CO)C(O)CC3N)C2O)C(N)C(O)C1OC1OC(CO)C(O)C(O)C1O (stereo unspecified)
GI50 (MCF7 breast): > 50 µg/mL
TGI (MCF7 breast): > 50 µg/mL
GI50 (OVCAR-3 ovarian): > 50 µg/mL
TGI (OVCAR-3 ovarian): > 50 µg/mL
GI50 (CCRF-CEM leukemia): > 50 µg/mL
TGI (CCRF-CEM leukemia): > 50 µg/mL
GI50 (PC-3 prostate): > 50 µg/mL
TGI (PC-3 prostate): > 50 µg/mL
GI50 (U251 CNS): > 50 µg/mL
TGI (U251 CNS): > 50 µg/mL
GI50 (LOX IMVI melanoma): > 50 µg/mL
TGI (LOX IMVI melanoma): > 50 µg/mL
GI50 (NCI/ADR-RES ovarian): > 50 µg/mL
TGI (NCI/ADR-RES ovarian): > 50 µg/mL
GI50 (NCI-H460 lung): > 50 µg/mL
TGI (NCI-H460 lung): > 50 µg/mL
GI50 (SW-620 colon): > 50 µg/mL
TGI (SW-620 colon): > 50 µg/mL
GI50 (HS 578T breast): > 50 µg/mL
TGI (HS 578T breast): > 50 µg/mL
GI50 (SK-MEL-28 melanoma): > 50 µg/mL
TGI (SK-MEL-28 melanoma): > 50 µg/mL
GI50 (SNB-75 CNS): > 50 µg/mL
TGI (SNB-75 CNS): > 50 µg/mL
GI50 (M14 melanoma): > 50 µg/mL
TGI (M14 melanoma): > 50 µg/mL
GI50 (OVCAR-5 ovarian): > 50 µg/mL
TGI (OVCAR-5 ovarian): > 50 µg/mL
GI50 (HT29 colon): > 50 µg/mL
TGI (HT29 colon): > 50 µg/mL
GI50 (SR leukemia): > 50 µg/mL
TGI (SR leukemia): > 50 µg/mL
GI50 (T-47D breast): > 50 µg/mL
TGI (T-47D breast): > 50 µg/mL
GI50 (DU-145 prostate): > 50 µg/mL
TGI (DU-145 prostate): > 50 µg/mL
GI50 (RPMI-8226 leukemia): > 50 µg/mL
TGI (RPMI-8226 leukemia): > 50 µg/mL
GI50 (MDA-N): > 50 µg/mL
TGI (MDA-N): > 50 µg/mL
GI50 (SF-295 CNS): > 50 µg/mL
TGI (SF-295 CNS): > 50 µg/mL
GI50 (UACC-62 melanoma): > 50 µg/mL
TGI (UACC-62 melanoma): > 50 µg/mL
GI50 (SK-OV-3 ovarian): > 50 µg/mL
TGI (SK-OV-3 ovarian): > 50 µg/mL
GI50 (HCT-15 colon): > 50 µg/mL
TGI (HCT-15 colon): > 50 µg/mL
GI50 (MDA-MB-231 breast): > 50 µg/mL
TGI (MDA-MB-231 breast): > 50 µg/mL
GI50 (NCI-H226 lung): > 50 µg/mL
TGI (NCI-H226 lung): > 50 µg/mL
GI50 (HL-60(TB) leukemia): > 50 µg/mL
TGI (HL-60(TB) leukemia): > 50 µg/mL
GI50 (UO-31 renal): > 50 µg/mL
TGI (UO-31 renal): > 50 µg/mL
GI50 (COLO 205 colon): > 50 µg/mL
TGI (COLO 205 colon): > 50 µg/mL
GI50 (SN12C renal): > 50 µg/mL
TGI (SN12C renal): > 50 µg/mL
GI50 (SNB-19 CNS): > 50 µg/mL
TGI (SNB-19 CNS): > 50 µg/mL
GI50 (NCI-H23 lung): > 50 µg/mL
TGI (NCI-H23 lung): > 50 µg/mL
GI50 (HOP-92 NSCLC): 14.7 µg/mL (≈ 19.3 µM)
TGI (HOP-92 NSCLC): > 50 µg/mL
GI50 (SF-268 CNS): > 50 µg/mL
TGI (SF-268 CNS): > 50 µg/mL
GI50 (ACHN renal): > 50 µg/mL
TGI (ACHN renal): > 50 µg/mL
GI50 (786-0 renal): > 50 µg/mL
TGI (786-0 renal): > 50 µg/mL
GI50 (CAKI-1 renal): > 50 µg/mL
TGI (CAKI-1 renal): > 50 µg/mL
GI50 (SF-539 CNS): > 50 µg/mL
TGI (SF-539 CNS): > 50 µg/mL
GI50 (K-562 leukemia): > 50 µg/mL
TGI (K-562 leukemia): > 50 µg/mL
GI50 (A498 renal): > 50 µg/mL
TGI (A498 renal): > 50 µg/mL
GI50 (BT-549 breast): > 50 µg/mL
TGI (BT-549 breast): > 50 µg/mL
GI50 (SK-MEL-5 melanoma): > 50 µg/mL
TGI (SK-MEL-5 melanoma): > 50 µg/mL
GI50 (MDA-MB-435): > 50 µg/mL
TGI (MDA-MB-435): > 50 µg/mL
GI50 (SK-MEL-2 melanoma): > 50 µg/mL
TGI (SK-MEL-2 melanoma): > 50 µg/mL
GI50 (IGROV1 ovarian): > 50 µg/mL
TGI (IGROV1 ovarian): > 50 µg/mL
GI50 (TK-10 renal): > 50 µg/mL
TGI (TK-10 renal): > 50 µg/mL
GI50 (HCT-116 colon): > 50 µg/mL
TGI (HCT-116 colon): > 50 µg/mL
GI50 (HOP-62 NSCLC): > 50 µg/mL
TGI (HOP-62 NSCLC): > 50 µg/mL
GI50 (EKVX NSCLC): > 50 µg/mL
TGI (EKVX NSCLC): > 50 µg/mL
GI50 (MOLT-4 leukemia): > 50 µg/mL
TGI (MOLT-4 leukemia): > 50 µg/mL
GI50 (UACC-257 melanoma): > 50 µg/mL
TGI (UACC-257 melanoma): > 50 µg/mL
GI50 (OVCAR-8 ovarian): > 50 µg/mL
TGI (OVCAR-8 ovarian): > 50 µg/mL
GI50 (A549 NSCLC): > 50 µg/mL
TGI (A549 NSCLC): > 50 µg/mL

From PubChem BioAssay (NCI)
